# Results published in US9221834B2 (Merck Sharp & Dohme Corp., priority 2010, dated 2015).
# Target: T1, recombinant CETP (rCETP) (Homo sapiens, UniProt P11597)
# T1 sequence (P11597 18-493): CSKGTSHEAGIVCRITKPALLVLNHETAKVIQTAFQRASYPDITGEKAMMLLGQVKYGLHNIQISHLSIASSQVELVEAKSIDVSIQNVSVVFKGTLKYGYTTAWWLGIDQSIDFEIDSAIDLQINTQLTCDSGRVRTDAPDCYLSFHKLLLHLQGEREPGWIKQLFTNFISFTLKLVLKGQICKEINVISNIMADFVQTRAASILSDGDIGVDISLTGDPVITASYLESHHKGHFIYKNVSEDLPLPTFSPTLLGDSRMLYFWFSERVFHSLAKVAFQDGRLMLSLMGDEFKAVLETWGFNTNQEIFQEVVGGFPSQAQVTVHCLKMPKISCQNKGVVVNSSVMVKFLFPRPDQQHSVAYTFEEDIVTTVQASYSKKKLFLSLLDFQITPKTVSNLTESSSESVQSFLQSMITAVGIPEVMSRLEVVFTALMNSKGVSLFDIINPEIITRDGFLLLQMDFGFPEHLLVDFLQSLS
# Test: RTA assay using recombinant CETP (2% RTA)
# Format: biochemical
# Details: RTA assay in 2% human serum; read-out: IC50
# Outline: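 Compounds preincubated 1 h at 37 °C with assay cocktail (CETP buffer: 50 mM Tris pH 7.4, 100 mM NaCl, 1 mM EDTA; human HDL acceptor); transfer started with [3H]cholesteryl oleate- or [3H]triolein-labelled LDL, 60 min at 37 °C. LDL PEG-precipitated; supernatant counted by scintillation, blank-corrected; IC50 from 4-parameter sigmoidal fit of % inhibition vs DMSO control.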
row,SMILES,IC50 [nM]
1,COc1ccc(-c2csc(C(=O)O)c2)cc1-c1ccc(N2CCC2)nc1CN1C(=O)O[C@H](c2cc(C(F)(F)F)cc(C(F)(F)F)c2)[C@@H]1C [Example 107],72
2,COC(=O)CCc1ccc(OC)c(-c2cnc(N3CC(F)(F)C3)nc2CN2C(=O)O[C@H](c3cc(C(F)(F)F)cc(C(F)(F)F)c3)[C@@H]2C)c1 [Example 144],17
3,COc1ccc(CC(C)(C)C(=O)O)cc1-c1ccc(N2CCC2)nc1CN1C(=O)O[C@H](c2cccc(C(F)(F)F)c2)[C@@H]1C [Example 221],145
4,"COc1ccc(CCC(=O)O)cc1-c1ccc(N2CCC2)nc1CN1C(=O)O[C@H](c2cc(C)cc(C)c2)[C@@H]1C [Example 228, 3-[3-(6-azetidin-1-yl-2-{[(4S,5R)-5-(3,5-dimethylphenyl)-4-methyl-2-oxo-1,3-oxazolidin-3-yl]methyl}pyridin-3-yl)-4-methoxyphenyl]propanoic acid]",47
5,CCc1ccc(-c2ccc(C(=O)O)cc2C)cc1-c1cnc(N2CC(OC)C2)nc1CN1C(=O)O[C@H](c2cc(C(F)(F)F)cc(C(F)(F)F)c2)[C@@H]1C [Example 166],46
6,CCOC(=O)[C@@H]1C[C@H]1c1ccc(OC)c(-c2ccc(N3CCC3)nc2CN2C(=O)O[C@H](c3cc(F)cc(F)c3)[C@@H]2C)c1 [Example 16],94
7,COc1cc2c(cc1-c1ccc(N3CCC3)nc1CN1C(=O)O[C@H](c3cc(F)cc(F)c3)[C@@H]1C)[C@H](CC(=O)O)CC2 [Example 86],415
8,COc1ccc(-n2ncc(C(=O)O)c2C(F)(F)F)cc1-c1cnc(N2CC(F)(F)C2)nc1CN1C(=O)O[C@H](c2cc(C(F)(F)F)cc(C(F)(F)F)c2)[C@@H]1C [Example 191],9
9,"COc1ccc(-c2ccc(O)c(C(C)=O)c2)cc1-c1ccc(N2CCC2)nc1CN1C(=O)O[C@H](c2cc(C(F)(F)F)cc(C(F)(F)F)c2)[C@@H]1C [Example 257, (4S,5R)-3-{[3-(3′-acetyl-4′-hydroxy-4-methoxybiphenyl-3-yl)-6-azetidin-1-ylpyridin-2-yl]methyl}-5-[3,5-bis(trifluoromethyl)phenyl]-4-methyl-1,3-oxazolidin-2-one]",90
10,COc1cc(F)c(-c2ncc(C(=O)O)cc2Cl)cc1-c1cnc(N2CC(F)(F)C2)nc1CN1C(=O)O[C@H](c2cc(C(F)(F)F)cc(C(F)(F)F)c2)[C@@H]1C [Example 189],5
11,COc1ccc(-c2ncc(C(=O)O)s2)cc1-c1ccc(N2CCC2)nc1CN1C(=O)O[C@H](c2cc(C(F)(F)F)cc(C(F)(F)F)c2)[C@@H]1C [Example 114],50
12,C[C@H]1[C@@H](c2cc(C(F)(F)F)cc(C(F)(F)F)c2)OC(=O)N1Cc1nc(N2CCC2)ccc1-c1cc(CCC(=O)O)ccc1Cl [Example 74],9
13,COc1ccc(-c2cc(C(=O)O)on2)cc1-c1ccc(N2CCC2)nc1CN1C(=O)O[C@H](c2cc(C(F)(F)F)cc(C(F)(F)F)c2)[C@@H]1C [Example 93],18
14,"COC(=O)[C@H]1CC[C@@H](c2ccc(OC)c(-c3ccc(N4CCC4)nc3CN3C(=O)O[C@H](c4cc(C(F)(F)F)cc(C(F)(F)F)c4)[C@@H]3C)c2)C1 (single isomer, unassigned) [Example 217]",19
15,COc1ccc([C@H]2CC[C@H](C(=O)O)CC2)cc1-c1ccc(N2CCC2)nc1CN1C(=O)O[C@H](c2cc(C)cc(C)c2)[C@@H]1C [Example 224],14
16,COC(=O)c1scc(-c2ccc(OC)c(-c3cc(Br)c(N4CCC4)nc3CN3C(=O)O[C@H](c4cc(C(F)(F)F)cc(C(F)(F)F)c4)[C@@H]3C)c2)c1C [Example 50],15
17,COC(=O)c1cc(-c2ccc(OC)c(-c3ccc(N4CCC4)nc3CN3C(=O)O[C@H](c4cc(C(F)(F)F)cc(C(F)(F)F)c4)[C@@H]3C)c2)c(C)s1 [Example 51],12
18,COc1ccc(CC(C)(C)C(=O)OC(C)(C)C)cc1-c1cnc(N2CCC2)nc1CN1C(=O)O[C@H](c2cc(C(F)(F)F)cc(C(F)(F)F)c2)[C@@H]1C [Example 127],114
19,COC(=O)c1ccc(-c2ccc(OC)c(-c3ccc(N4CCC4)nc3CN3C(=O)O[C@H](c4cc(C)cc(C)c4)[C@@H]3C)c2)c(C)c1 [Example 211],23
20,COC(=O)CCc1ccc(OC)c(-c2ccc(N3CCC3)nc2CN2C(=O)O[C@H](c3ccc(F)c(F)c3)[C@@H]2C)c1 [Example 11],186
21,CCOC(=O)[C@@H]1C[C@H]1c1ccc(OC)c(-c2ccc(N3CCC3)nc2CN2C(=O)O[C@H](c3cccc(C(F)(F)F)c3)[C@@H]2C)c1 [Example 207],44

row,SMILES,IC50 [nM]
1,COC(=O)Cc1ccc(OC)c(-c2ccc(N3CCC3)nc2CN2C(=O)O[C@H](c3cc(C(F)(F)F)cc(C(F)(F)F)c3)[C@@H]2C)c1 [Example 8],12
2,"COc1ccc([C@H]2C[C@@H](C(=O)OC)C2)cc1-c1c(C)cc(N2CCC2)nc1CN1C(=O)O[C@H](c2cc(C(F)(F)F)cc(C(F)(F)F)c2)[C@@H]1C (single isomer, unassigned) [Example 42]",102
3,COC(=O)c1ccc(-c2ccc(OC)c(-c3ccc(N4CCC4)nc3CN3C(=O)O[C@H](c4cccc(C(F)(F)F)c4)[C@@H]3C)c2)c(C)c1 [Example 210],22
4,"COc1ccc(CCC(=O)O)cc1-c1c(C)cc(N2CCC2)nc1CN1C(=O)O[C@H](c2cc(C(F)(F)F)cc(C(F)(F)F)c2)[C@@H]1C [Example 61, 3-{3-[6-Azetidin-1-yl-2-({(4S,5R)-5-[3,5-bis(trifluoromethyl)phenyl]-4-methyl-2-oxo-1,3-oxazolidin-3-yl}methyl)-4-methylpyridin-3-yl]-4-methoxyphenyl}propanoic acid]",5
5,COC(=O)[C@H]1CC[C@H](c2ccc(Cl)c(-c3cnc(N4CC(F)(F)C4)nc3CN3C(=O)O[C@H](c4cc(C(F)(F)F)cc(C(F)(F)F)c4)[C@@H]3C)c2)CC1 [Example 147],94
6,Cc1cc(C(=O)O)ccc1-c1cc(F)cc(-c2ccc(N3CCC3)nc2CN2C(=O)O[C@H](c3cc(C(F)(F)F)cc(C(F)(F)F)c3)[C@@H]2C)c1 [Example 288],11
7,COc1c(F)cc(-n2ncc(C(=O)O)c2C(F)(F)F)cc1-c1cnc(N2CC(F)(F)C2)nc1CN1C(=O)O[C@H](c2cc(C(F)(F)F)cc(C(F)(F)F)c2)[C@@H]1C [Example 187],4
8,COc1cc(F)c([C@H]2C[C@H](C(=O)O)C2)cc1-c1ccc(N2CCC2)nc1CN1C(=O)O[C@H](c2cc(C(F)(F)F)cc(C(F)(F)F)c2)[C@@H]1C [Example 104],4
9,COc1ccc([C@H]2C[C@@H](C(=O)OC)C2)cc1-c1ccc(N2CCC2)nc1CN1C(=O)O[C@H](c2cc(C(F)(F)F)cc(C(F)(F)F)c2)[C@@H]1C [Example 23],18
10,COc1ccc([C@@H]2C[C@H]2C(=O)O)cc1-c1ccc(N2CCC2)nc1CN1C(=O)O[C@H](c2cccc(C(F)(F)F)c2)[C@@H]1C [Example 232],54
11,COc1ccc(-c2nc(C(=O)O)cs2)cc1-c1ccc(N2CCC2)nc1CN1C(=O)O[C@H](c2cc(C(F)(F)F)cc(C(F)(F)F)c2)[C@@H]1C [Example 115],285
12,COc1ccc([C@@H]2C[C@H]2C(=O)O)cc1-c1ccc(N2CCC2)nc1CN1C(=O)O[C@H](c2cc(C)cc(C)c2)[C@@H]1C [Example 233],38
13,COc1cc(F)c(-c2ccc(C(=O)O)cc2C)cc1-c1ccc(N2CCC2)nc1CN1C(=O)O[C@H](c2cc(F)cc(F)c2)[C@@H]1C [Example 87],7
14,COc1ccc([C@H]2C[C@@H](CC(=O)O)C2)cc1-c1ccc(N2CCC2)nc1CN1C(=O)O[C@H](c2cc(C(F)(F)F)cc(C(F)(F)F)c2)[C@@H]1C [Example 91],10
15,"COc1ccc(CCC(=O)O)cc1-c1ccc(N2CCC2)nc1CN1C(=O)O[C@H](c2cc(C(F)(F)F)cc(C(F)(F)F)c2)[C@@H]1C [Example 60, 3-{3-[6-Azetidin-1-yl-2-({(4S,5R)-5-[3,5-bis(trifluoromethyl)phenyl]-4-methyl-2-oxo-1,3-oxazolidin-3-yl}methyl)pyridin-3-yl]-4-methoxyphenyl}propanoic acid]",11
16,COc1ccc(-c2csc(C(=O)O)c2OC)cc1-c1ccc(N2CCC2)nc1CN1C(=O)O[C@H](c2cc(C(F)(F)F)cc(C(F)(F)F)c2)[C@@H]1C [Example 110],44
17,COC(=O)CC(C)(C)c1ccc(OC)c(-c2ccc(N3CCC3)nc2CN2C(=O)O[C@H](c3cc(C)cc(C)c3)[C@@H]2C)c1 [Example 202],16
18,COc1ccc(CCC(=O)O)cc1-c1cnc(N2CC(F)C2)nc1CN1C(=O)O[C@H](c2cc(C(F)(F)F)cc(C(F)(F)F)c2)[C@@H]1C [Example 172],35
19,COc1ccc(C(C)(C)CC(=O)O)cc1-c1ccc(N2CCC2)nc1CN1C(=O)O[C@H](c2cc(C(F)(F)F)cc(C(F)(F)F)c2)[C@@H]1C [Example 77],15
20,COc1ccc([C@H]2C[C@H](C(=O)O)C2)cc1-c1ccc(N2CC(F)(F)C2)nc1CN1C(=O)O[C@H](c2cccc(OC(F)(F)F)c2)[C@@H]1C [Example 295],114
21,COC(=O)CCc1ccc(OC)c(-c2cnc(N3CC(F)C3)nc2CN2C(=O)O[C@H](c3cc(C(F)(F)F)cc(C(F)(F)F)c3)[C@@H]2C)c1 [Example 143],7

# Same assay, conditions: value printed with the example; serum level not stated there; read-out: RTA
row,SMILES,IC50 [nM]
1,COc1ccc(-c2ccc(C(=O)O)cc2C)cc1-c1cnc(N2CCC2)nc1CN1C(=O)O[C@H](c2cc(Cl)cc(Cl)c2)[C@@H]1C [Example 302],4.43
